Entries after “also recorded” stand apart in the source; their conditions may differ.
Key:
[1] = test system: cyclooxygenase isoforms; settings: background statement, selectivity controversial; cited from earlier work
[2] = test system: rat distal vaginal smooth muscle tissue; assay: In vitro isometric tension, isolated organ bath: relaxation of EFS-induced contractions of distal vagina strips; settings: for relaxation of EFS-induced contractions of distal vagina strips compared to the vehicle control: 10 min incubation, two-way ANOVA; for pharmacological relaxant effect on rat distal vaginal smooth muscle tissue (dose dependence): figure legend, 1, 10 and 100 µg/mL
From the text: (§1) The following in vitro methodology was utilized to examine the concentration-dependent response of rat vaginal tissue, both proximal and distal, to CBDA and CBD following contraction by electrical field stimulation (similar to efferent neurostimulation in vivo).
(§2) Intact female Sprague-Dawley rats were anesthetized and vagina harvested. A maximum of eight vaginal strips (4 proximal and 4 distal) were obtained from each rat in circular direction and mounted in organ chambers filled with an oxygenated physiological salt solution.
(§3) Strips were excised from the tissue samples and connected to force transducers for isometric tension recording. Organ baths were filled with Krebs buffer maintained at 37° C. and bubbled with 95% O2 and 5% CO2, pH 7.4.
(§4) After the equilibration period, the strips were primed first by the addition to the organ bath of KCI (100 mM, 10 min) and then after a washing step, by stimulation to EFS (electrical parameters: 20 Hz, 3 ms, 10 s, 300 mA). After this priming period, the strips were washed and a baseline frequency response curve (FRC) was obtained (3 ms, 10 s, 300 mA, frequency at 1, 2, 4, 8, 16, 32, and 48 Hz, every 2 minutes). Then, 6 strips (3 proximal and 3 distal) were incubated with vehicle for 10 minutes before applying a second FRC. The remaining 2 strips (one proximal and one distal) served as a time-controls. After a washing step, a third FRC was applied after the incubation of the test compound at 1 µg/mL for a period of 10 min. This was repeated with the concentration of 10 µg/mL, and 100 µg/mL.
(§5) The experiments were performed following the general procedures described in Examples 1 and 2. The data are mean ± SEM of N experiments using vaginal strips from N different rats. p = ns, * p < 0.05, ** p < 0.01, *** p < 0.001, **** p < 0.0001, two-way ANOVA.
(§6) The experiments were performed following the general procedures described in Examples 1 and 2. The data are mean ± SEM of N experiments using vaginal strips from N different rats; p = ns, * p < 0.05, ** p < 0.01, *** p < 0.001, **** p < 0.0001, two-way ANOVA.
(§7) The comparison plots of the pharmacological relaxant effects of CBD and CBDA on rat vaginal smooth muscle tissue are shown in FIGS. 3, 4, and 5. Also, shown are the results of the evaluation of the differences in effects exerted by CBD and CBDA for statistical significance. The data are mean ± SEM of N experiments using vaginal strips from N different rats; p = ns, * p < 0.05, ** p < 0.01, *** p < 0.001, **** p < 0.0001, two-way ANOVA.

[3] = test system: rat proximal vaginal smooth muscle tissue; assay: In vitro isometric tension, isolated organ bath: relaxation of EFS-induced contractions of proximal vagina strips; settings: for relaxation of EFS-induced contractions of proximal vagina strips compared to the vehicle control: 10 min incubation, two-way ANOVA; for pharmacological relaxant effect on rat proximal vaginal smooth muscle tissue (dose dependence): figure legend, 1, 10 and 100 µg/mL
From the text: as §1, §2, §3, §4, §5, §6, §7

[4] = test system: vaginal smooth muscle; settings: earlier study WO2021091908A1; cited from earlier work
[5] = background statement; cited from earlier work
[6] = test system: rat vaginal smooth muscle; assay: Relaxation of precontracted rat vaginal smooth muscle (summary statement); settings: dose-dependent manner; tissue region not specified
From the text: as §1, §2, §3
as §4, with “After a washing step, a third FRC was applied after the incubation of the test compound at 1 µg/mL for a period of 10 min. This was repeated with the concentration of 10 µg/mL, and 100 µg/mL.” left out

[7] = pKa estimate by comparison to olivetolic acid; type: physicochemical; settings: estimated by comparison to olivetolic acid; not reported

Row | SMILES | activity against cyclooxygenase (COX-1/COX-2) [1] | relaxation of EFS-induced contractions of distal vagina strips compared to the vehicle control ([2]; 1 µg/mL) | relaxation of EFS-induced contractions of distal vagina strips compared to the vehicle control ([2]; 10 µg/mL) | relaxation of EFS-induced contractions of distal vagina strips compared to the vehicle control ([2]; 100 µg/mL) | pharmacological relaxant effect on rat distal vaginal smooth muscle tissue (dose dependence) [2] | relaxation of EFS-induced contractions of proximal vagina strips compared to the vehicle control ([3]; 10 µg/mL) | relaxation of EFS-induced contractions of proximal vagina strips compared to the vehicle control ([3]; 100 µg/mL) | pharmacological relaxant effect on rat proximal vaginal smooth muscle tissue (dose dependence) [3] | relaxation of vaginal smooth muscle [4] | permeability relative to CBD [5] | effectiveness at relaxing a precontracted rat vaginal smooth muscle, relative to CBD [6] | pharmacological relaxant effect of CBDA compared with CBD, distal vaginal smooth muscle ([2]; 1 µg/mL, FIG. 3B) | pharmacological relaxant effect of CBDA compared with CBD, distal vaginal smooth muscle ([2]; 10 µg/mL, FIG. 4B) | pharmacological relaxant effect of CBDA compared with CBD, distal vaginal smooth muscle ([2]; 100 µg/mL, FIG. 5B) | pharmacological relaxant effect of CBDA compared with CBD, proximal vaginal smooth muscle ([3]; 1 µg/mL, FIG. 3A) | pharmacological relaxant effect of CBDA compared with CBD, proximal vaginal smooth muscle ([3]; 10 µg/mL, FIG. 4A) | pharmacological relaxant effect of CBDA compared with CBD, proximal vaginal smooth muscle ([3]; 100 µg/mL, FIG. 5A) | pKa [7]
1 | C=C(C)[C@@H]1CCC(C)=C[C@H]1c1c(O)cc(CCCCC)cc1O [CBD, (-)-trans-cannabidiol, reference compound] | much weaker or no activity | statistically-significant relaxation; also recorded: statistically significant relaxation | statistically-significant relaxation; also recorded: statistically significant relaxation | statistically-significant relaxation; also recorded: statistically significant relaxation | statistically significant, dose-dependent pharmacological relaxant effect | statistically-significant relaxation | statistically-significant relaxation | statistically significant, dose-dependent pharmacological relaxant effect | statistically-significant relaxation | – | – | – | – | – | – | – | – | –
2 | C=C(C)[C@@H]1CCC(C)=C[C@H]1c1c(O)cc(CCCCC)c(C(=O)O)c1O [CBDA, (1′R,2′R)-2,6-dihydroxy-5′-methyl-4-pentyl-2′-(prop-1-en-2-yl)-1′,2′,3′,4′-tetrahydro[1,1′-biphenyl]-3-carboxylic acid] | inhibitor of cyclooxygenase isoforms | – | statistically-significant relaxation | statistically-significant relaxation | statistically significant, dose-dependent pharmacological relaxant effect | – | – | statistically significant, dose-dependent pharmacological relaxant effect | – | substantially higher | significantly more effective than CBD | no statistically significant difference | stronger | stronger | stronger | stronger | stronger | ~3.4
